# From patent US11291674B2 (CALITHERA BIOSCIENCES, INC., priority 2016, dated 2022)
# “Also recorded” adds a separate entry of the source.
# Legend:
# [1] = Tolerability and body weight in mice; format: in vivo
# Source text: (§1) Murine tumor studies. Female wild-type C57BL/6 and Balb/c mice (5-6 weeks old) were purchased from Charles River Laboratories (Hollister, Calif.). Severe combined immune deficient (SCID, B6.CB17-PrkdcSCID/SzJ) and Pmel-1 TCR transgenic (B6.Cg-Thyla/Cy Tg(TcraTcrb)8Rest/J) mice (5-6 weeks old) were purchased from The Jackson Laboratory (Bar Harbor, Me.). All mice were housed and treated in accordance with Institutional Animal Care and Use Committee guidelines. For the 4T1 tumor model, 1×10^5 cells were injected orthotopically into the mammary fat pad; for all other tumor models, 1×10^6 cells were injected subcutaneously (s.c.) in the right flank. […] Control groups received vehicle (water) twice daily by gavage. Tumor volume measured by digital caliper (length×width×width/2) and body weight were recorded three times weekly. Animals were euthanized when tumors necrotized or volumes reached 2000 mm^3. Anti-PD-L1 antibody (5 mg/kg, clone 10F.9G2, BioXCell, West Lebanon, N.H.) was injected intraperitoneally (i.p.) on days 5, 7, 9, 11, 13, and 15 for the CT26 model. Gemcitabine (Selleckchem, Houston, Tex.) was dosed 50 mg/kg i.p. on days 10 and 16 for the CT26 model or 60 mg/kg i.p. on days 6 and 10 for the LLC model. For CD8^+ cell depletion, mice were injected i.p. with anti-CD8 antibody (25 mg/kg, clone 2.43, BioXCell) on days −1, 0, +5, and +10. […]
# [2] = tested on: LLC tumors; assay: LLC tumors in mice with conditional Arg1 deletion in the myeloid lineage; format: in vivo, mouse; details: 100 mg/kg every 12 h for 14 days
# Source text: Conditional Arg1 deleted mice. Arg1 floxed mice were crossed to the Tie2-Cre deleter strain (The Jackson Laboratory) as previously described. Experimental mice were generated from crossing Arg1^Flox/Flox; Tie2-Cre^+ males with Arg1^Flox/Flox; Tie2-Cre^+ females, with Cre negative littermates serving as wild-type controls. Mice were housed and used in accordance with protocols approved by the Institutional Animal Care and Use Committee at St. Jude Children's Research Hospital. LLC cells (1×10^6 per mouse) were injected s.c. in the flank region. […] Mice were euthanized, and tumors excised and weights recorded. Myeloid deletion of Arg1 was confirmed via western blotting of IL-4-stimulated bone marrow-derived macrophages for all animals.
# [3] = tested on: LLC tumors; assay: LLC syngeneic tumor model; format: in vivo, mouse
# Source text: (§2) Murine tumor studies. Female wild-type C57BL/6 and Balb/c mice (5-6 weeks old) were purchased from Charles River Laboratories (Hollister, Calif.). Severe combined immune deficient (SCID, B6.CB17-PrkdcSCID/SzJ) and Pmel-1 TCR transgenic (B6.Cg-Thyla/Cy Tg(TcraTcrb)8Rest/J) mice (5-6 weeks old) were purchased from The Jackson Laboratory (Bar Harbor, Me.). All mice were housed and treated in accordance with Institutional Animal Care and Use Committee guidelines. For the 4T1 tumor model, 1×10^5 cells were injected orthotopically into the mammary fat pad; for all other tumor models, 1×10^6 cells were injected subcutaneously (s.c.) in the right flank. […] Control groups received vehicle (water) twice daily by gavage. Tumor volume measured by digital caliper (length×width×width/2) and body weight were recorded three times weekly. Animals were euthanized when tumors necrotized or volumes reached 2000 mm^3. Anti-PD-L1 antibody (5 mg/kg, clone 10F.9G2, BioXCell, West Lebanon, N.H.) was injected intraperitoneally (i.p.) on days 5, 7, 9, 11, 13, and 15 for the CT26 model. Gemcitabine (Selleckchem, Houston, Tex.) was dosed 50 mg/kg i.p. on days 10 and 16 for the CT26 model or 60 mg/kg i.p. on days 6 and 10 for the LLC model. For CD8^+ cell depletion, mice were injected i.p. with anti-CD8 antibody (25 mg/kg, clone 2.43, BioXCell) on days −1, 0, +5, and +10. For NK cell depletion, mice were injected i.p. with anti-NK1.1 antibody (25 mg/kg, clone PK136, BioXCell) in the LLC and B16 models or with anti-Asialo GM1 sera (20 μL, Wako Chemicals, Richmond, Va.) in the CT26 model, per the same schedule as anti-CD8.
# (§3) Tumor dissociation and flow cytometry. […] Excised tumors were placed in RPMI-1640 containing 5% FBS on ice, minced with a razor blade, and dissociated in RPMI-1640 supplemented with mouse tumor dissociation enzymes (Miltenyi Biotec, Bergisch Gladbach, Germany) on a GentleMACS Octo Dissociator With Heat (Miltenyi Biotec) according to the manufacturer's instructions. Dissociated tumors were strained through 70 μm nylon mesh, washed with cold PBS containing 2% FBS, blocked with anti-CD16/CD32 (Fc block antibody, eBioscience), and stained for cell surface antigens. For B16 and 4T1 tumors, washed dissociated tumor cells were incubated with Dead Cell Removal MicroBeads (Miltenyi Biotec) and applied to a magnetic column prior to staining. For intracellular staining, cells were fixed and permeabilized using buffers purchased from R&D Systems or eBioscience for cytoplasmic or nuclear antigens, respectively. All tumor flow experiments were acquired on an Attune N×T flow cytometer and analyzed with FlowJo software version 10 (Ashland, Oreg.), using fluorescence-minus-one controls for gating and single-stained OneComp eBeads (eBioscience) to set compensation matrices.
# Gene expression analysis. […] RNA was extracted for gene expression analysis and transcripts were quantified by NanoString Technologies (Seattle, Wash.).
# Cytokine analysis. […] Tumors were homogenized in 50 mM Tris-HCl buffer containing 2 mM EDTA, pH 7.4 and protease inhibitors. The homogenate was centrifuged and the supernatant was collected and re-frozen. Cytokines in the supernatant were quantified by Myriad Rules Based Medicine (Austin, Tex.).
# [4] = tested on: 4T1 cell line; assay: Cytotoxicity assay (CellTiterGlo), 4T1; format: cell-based, murine; details: 1 mM arginase inhibitor, 72 h
# Description: (§4) Cytotoxicity assays. […] Cytotoxicity was assayed by the addition of CellTiterGlo reagent according to the manufacturer's instructions (Promega, Madison, Wis.) followed by […] quantification on a Molecular Devices plate reader (Sunnyvale, Calif.).
# [5] = Pharmacokinetic and pharmacodynamic study in LLC tumor-bearing mice; format: in vivo, mouse
# Source text: (****P<0.0001; ***P<0.001; **P<0.01 vs. vehicle).
# [6] = tested on: LLC tumors; assay: LLC tumors in SCID mice; format: in vivo, mouse; details: 100 mg/kg PO twice daily
# Description: Tumors from LLC studies were analyzed on study day 13 (CD8^+ cell depletion) or study day 14 (NK cell depletion). (****P<0.0001; ***P<0.001; **P<0.01).
# as §1, with “model.” for “model. For CD8^+ cell depletion, mice were injected i.p. with anti-CD8 antibody (25 mg/kg, clone 2.43, BioXCell) on days −1, 0, +5, and +10.”
# [7] = tested on: B16.F10 tumor; assay: Example 1: arginase inhibitor with adoptive immunotherapy, B16.F10 tumors; format: in vivo, mouse; details: 100 mg/kg twice a day, vs adoptive T cell therapy only; survival P value 0.0137
# Description: In order to test the effect of arginase inhibitors and adoptive immunotherapy on cancer progression, mice were inoculated with B16.F10 cells to generate a tumor. Approximately 1×10^6 cells were implanted in C57.Bl/6 mice. Mice were then treated with non-myeloablative chemotherapy (Cyclophosphamide 250 mg/kg and Fludarabine 50 mg/kg). Cyclophosphamide and Fludarabine were dosed via intraperitoneal injection on day 7 (FIG. 1A, orange arrow). Pme1-1 CD8 T cells (1×10^6) were intravenously transferred on day 8 (FIG. 1A, blue arrow). Recombinant human IL-2 (200,000 UI) was dosed via intraperitoneal injection twice a day on days 8, 9, 10 in mice receiving adoptive immunotherapy. […] Survival curves can be seen in FIG. 1C. P value is 0.0137, and was calculated by Mantel-Cox test. (N=9-10 per group).
# [8] = tested on: LLC cell line; assay: Cytotoxicity assay (CellTiterGlo), LLC; format: cell-based, murine; details: 1 mM arginase inhibitor, 72 h
# Description: as §4
# [9] = tested on: B16 cell line; assay: Cytotoxicity assay (CellTiterGlo), B16; format: cell-based, murine; details: 1 mM arginase inhibitor, 72 h
# Description: as §4
# [10] = tested on: 4T1 tumors; assay: 4T1 orthotopic tumor model; format: in vivo, mouse
# Source text: as §2, §3
# [11] = 100 mg/kg BID, study day 14, flow cytometry
# [12] = 100 mg/kg BID, study day 10, flow cytometry
smiles,measurement,setting,value
C[C@H](N)C(=O)N1C[C@H](CCCB(O)O)[C@](N)(C(=O)O)C1 [arginase inhibitor],Tolerability,"[1]; 100 mg/kg twice daily for 23 days, no significant clinical observations or impact on body weight",well-tolerated
same,Duration for which twice-daily oral dosing was well-tolerated,[1]; mice,at least 40 days
same,Tumor growth in Arg flox/flox; Tie2-Cre+ (ARG1 ΔM) animals,[2],no further reduction in tumor growth
same,"Tumor growth, single agent",[3]; 100 mg/kg BID PO,significantly inhibited the growth
same,Transcripts of interferon-responsive genes in tumors vs vehicle,"[3]; 100 mg/kg BID, Nanostring",increases
same,CD8+ T cells in the tumor vs vehicle,[3]; [11],increase
same,CD68+ macrophages in the tumor vs vehicle,[3]; [11],decrease
same,Effect of depletion of CD8+ cells on efficacy,"[3]; 100 mg/kg twice daily, anti-CD8",smaller effect
same,Efficacy after depletion of NK cells,"[3]; 100 mg/kg twice daily, anti-NK1.1",loss of efficacy
same,Inflammatory cytokines in tumors vs vehicle,"[3]; 200 mg/kg BID, Luminex",increases
same,"Tumor growth inhibition, combination with gemcitabine",[3]; gemcitabine 60 mg/kg i.p. days 6 and 10,significant increase in tumor growth inhibition
same,Growth inhibition of 4T1 cell line,[4],No growth inhibition
same,L-arginine in tumor and plasma,"[5]; oral dosing, tumor-bearing mice",raised the amount of L-arginine
same,Exposure of arginase inhibitor in tumor and plasma,"[5]; single dose or BID dosing for 5 days, oral, 2 h after last dose",dose-dependent exposure
same,Efficacy on LLC tumor growth in the SCID background,[6],abrogated
same,"Tumor volume over 25 days, combination with adoptive T cell therapy",[7],slower tumor progression
same,Growth inhibition of LLC cell line,[8],No growth inhibition
same,Growth inhibition of B16 cell line,[9],No growth inhibition
same,"Tumor growth, single agent",[10]; 100 mg/kg BID PO,significantly inhibited the growth; also recorded: modest effect on tumor growth
same,CD3+ T cells in the tumor vs vehicle,[10]; [12],increase
same,Myeloid cells in the tumor vs vehicle,[10]; [12],decrease
same,NK cells in the tumor vs vehicle,[10]; [12],increase
